The target in experiment [1] is T1, human recombinant Monoacylglycerol Lipase (Homo sapiens (Human), UniProt Q99685). Description: MAGL inactivation (enzyme progress curves, kinact/KI). The note with it: from plot of Kobs vs. compound concentration; T=0 min protocol; geometric mean of 2-4 determinations. The experiment is classed as biochemical.
Experiment [2] addresses T1, human recombinant Monoacylglycerol Lipase. The experiment can be described thus: MAGL Enzymatic Assay (fluorogenic substrate 7-HCA), IC50. The class given is biochemical. The note with it: geometric mean of 2-4 determinations unless otherwise indicated. How it is done:
An equal volume of 7-HCA in assay buffer with 10% DMSO was added either immediately (T=0 min) or after a 30 minute incubation (T=30 min) to initiate the reaction. […] After these dilutions, the final concentration of the test compound ranged from 3 μM to 0.03 nM. […] IC50 values were generated based on a four parameter fit model using ABASE software from IDBS.

Usually IC50 stands for the concentration needed to halve the response being measured.

Read-outs that look alike come from different tables or passages of the source. Bounds are passed on as bounds.

T1 sequence (Q99685 whole entry): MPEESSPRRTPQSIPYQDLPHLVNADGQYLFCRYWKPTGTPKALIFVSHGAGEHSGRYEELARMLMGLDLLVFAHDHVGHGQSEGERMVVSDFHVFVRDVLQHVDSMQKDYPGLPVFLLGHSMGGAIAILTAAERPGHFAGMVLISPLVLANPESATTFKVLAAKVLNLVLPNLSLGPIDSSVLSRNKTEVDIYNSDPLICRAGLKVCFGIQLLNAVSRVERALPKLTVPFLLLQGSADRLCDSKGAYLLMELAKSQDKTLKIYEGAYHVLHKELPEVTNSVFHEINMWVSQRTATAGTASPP

On to `CN(C(=O)C(C)(C)C)C1COC2(CCN(C(=O)ON3C(=O)CCC3=O)CC2)C1` (stereo not drawn) [Example 51, N-(8-{[(2,5-dioxopyrrolidin-1-yl)oxy]carbonyl}-1-oxa-8-azaspiro[4.5]dec-3-yl)-N,2,2-trimethylpropanamide], for which the “MAGL Kinact/Kl” value in experiment [1] is 3290 1/s per M. The IC50 was over 247 nM in experiment [2] (substrate added after a 30 minute incubation (T=30 min), read-out: MAGL (T = 30 min) IC50) and over 692 nM in experiment [2] (substrate added immediately (T=0 min), read-out: MAGL (T = 0 min) IC50).

For the origin of these results see US10858373B2, “Heterocyclic spiro compounds as MAGL inhibitors” (Pfizer Inc., priority 2017, dated 2020).
